Experimental data: BindingDB's records for patent US20240335442 (Eurofarma, 2024)

How the values were obtained:
[1] = target: Sodium channel protein type 9 subunit alpha (Homo sapiens, UniProt Q15858); assay: In Vitro Assay (Protocol 2)
Method: (§1) Compounds of Formula (I), were diluted in eight concentrations in the extracellular solution composed of physiological saline, buffered with HEPES (mM): NaCl, 137; KCl, 4; CaCl2, 3.8; MgCl2, 1; HEPES, 10; Glucose, 10; pH 7.4. […], 50; CsF, 90; MgCl2, 5; EGTA, 5; HEPES, 10; pH 7.2. The duration of exposure of each compound with the cells expressing Nav 1.7 or Nav 1.8 was at least five minutes and the assays were performed at room temperature.The measurements of the sodium currents of Nav 1.8 and Nav 1.7 were obtained using the voltage protocols described below: A holding voltage of-100 mV was established followed by an inactivation voltage step at −40 mV for 8 seconds, followed by a −100 mV step for 20 ms, followed by a 20 ms step for 10 mV for Nav 1.8 or 0 mV for Nav 1.7 (TP1A) before returning to the holding voltage of-100 mV. Protocols were repeated at a frequency of 0.05 Hz and current amplitude was quantified over the TP1A phase log.

[2] = target: Sodium channel protein type 10 subunit alpha (Homo sapiens, UniProt Q9Y5Y9); assay: In Vitro Assay (Protocol 2)
Method: as §1

Chain of Sodium channel protein type 9 subunit alpha (Q15858 whole entry): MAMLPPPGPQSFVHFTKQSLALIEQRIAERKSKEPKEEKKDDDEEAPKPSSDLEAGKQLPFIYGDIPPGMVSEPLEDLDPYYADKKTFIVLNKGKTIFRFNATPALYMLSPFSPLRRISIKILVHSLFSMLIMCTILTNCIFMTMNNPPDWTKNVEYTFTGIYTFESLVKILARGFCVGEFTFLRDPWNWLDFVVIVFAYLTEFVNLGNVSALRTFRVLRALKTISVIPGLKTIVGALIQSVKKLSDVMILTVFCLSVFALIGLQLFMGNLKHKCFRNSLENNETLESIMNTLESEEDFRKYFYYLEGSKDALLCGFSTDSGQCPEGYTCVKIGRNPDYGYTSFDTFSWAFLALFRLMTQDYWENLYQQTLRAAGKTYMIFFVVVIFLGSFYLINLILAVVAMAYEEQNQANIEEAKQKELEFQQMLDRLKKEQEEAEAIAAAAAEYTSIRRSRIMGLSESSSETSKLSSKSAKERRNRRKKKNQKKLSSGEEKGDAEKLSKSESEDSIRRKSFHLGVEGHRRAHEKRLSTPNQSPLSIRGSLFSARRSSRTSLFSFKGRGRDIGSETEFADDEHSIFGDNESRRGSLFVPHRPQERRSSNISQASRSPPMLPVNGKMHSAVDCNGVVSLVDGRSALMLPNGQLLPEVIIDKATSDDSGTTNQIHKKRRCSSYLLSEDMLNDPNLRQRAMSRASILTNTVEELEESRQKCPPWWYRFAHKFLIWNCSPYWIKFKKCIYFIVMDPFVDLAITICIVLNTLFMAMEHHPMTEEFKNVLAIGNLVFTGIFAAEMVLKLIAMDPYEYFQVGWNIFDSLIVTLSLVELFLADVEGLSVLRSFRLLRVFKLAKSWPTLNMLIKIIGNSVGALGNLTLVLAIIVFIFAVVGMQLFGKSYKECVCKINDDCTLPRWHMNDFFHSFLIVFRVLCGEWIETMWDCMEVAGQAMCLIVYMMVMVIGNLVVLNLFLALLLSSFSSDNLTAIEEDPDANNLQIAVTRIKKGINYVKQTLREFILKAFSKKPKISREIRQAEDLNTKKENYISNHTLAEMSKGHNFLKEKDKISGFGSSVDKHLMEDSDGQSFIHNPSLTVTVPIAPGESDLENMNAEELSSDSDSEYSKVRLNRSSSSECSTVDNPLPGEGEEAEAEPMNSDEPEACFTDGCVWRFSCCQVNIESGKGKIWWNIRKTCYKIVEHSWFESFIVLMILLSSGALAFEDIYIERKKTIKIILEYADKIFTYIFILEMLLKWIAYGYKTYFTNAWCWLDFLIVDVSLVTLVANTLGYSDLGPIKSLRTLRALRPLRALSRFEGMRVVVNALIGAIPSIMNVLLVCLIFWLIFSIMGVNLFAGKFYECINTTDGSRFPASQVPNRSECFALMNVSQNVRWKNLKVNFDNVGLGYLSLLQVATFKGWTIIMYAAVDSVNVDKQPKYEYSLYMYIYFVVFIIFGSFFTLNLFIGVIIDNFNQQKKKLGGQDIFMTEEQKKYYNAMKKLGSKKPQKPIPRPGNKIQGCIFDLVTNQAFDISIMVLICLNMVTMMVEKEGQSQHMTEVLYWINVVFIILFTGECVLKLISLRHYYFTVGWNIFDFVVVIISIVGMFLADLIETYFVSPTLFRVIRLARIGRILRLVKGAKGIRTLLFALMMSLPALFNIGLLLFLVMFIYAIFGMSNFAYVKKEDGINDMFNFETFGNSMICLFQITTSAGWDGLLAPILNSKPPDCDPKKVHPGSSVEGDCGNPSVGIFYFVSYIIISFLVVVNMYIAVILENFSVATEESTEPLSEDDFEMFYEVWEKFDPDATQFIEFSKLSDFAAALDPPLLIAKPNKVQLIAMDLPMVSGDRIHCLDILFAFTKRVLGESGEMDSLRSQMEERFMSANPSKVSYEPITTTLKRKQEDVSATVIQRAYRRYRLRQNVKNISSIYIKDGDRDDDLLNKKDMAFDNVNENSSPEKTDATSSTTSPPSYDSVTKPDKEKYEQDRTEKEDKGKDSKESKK
Chain of Sodium channel protein type 10 subunit alpha (Q9Y5Y9 whole entry): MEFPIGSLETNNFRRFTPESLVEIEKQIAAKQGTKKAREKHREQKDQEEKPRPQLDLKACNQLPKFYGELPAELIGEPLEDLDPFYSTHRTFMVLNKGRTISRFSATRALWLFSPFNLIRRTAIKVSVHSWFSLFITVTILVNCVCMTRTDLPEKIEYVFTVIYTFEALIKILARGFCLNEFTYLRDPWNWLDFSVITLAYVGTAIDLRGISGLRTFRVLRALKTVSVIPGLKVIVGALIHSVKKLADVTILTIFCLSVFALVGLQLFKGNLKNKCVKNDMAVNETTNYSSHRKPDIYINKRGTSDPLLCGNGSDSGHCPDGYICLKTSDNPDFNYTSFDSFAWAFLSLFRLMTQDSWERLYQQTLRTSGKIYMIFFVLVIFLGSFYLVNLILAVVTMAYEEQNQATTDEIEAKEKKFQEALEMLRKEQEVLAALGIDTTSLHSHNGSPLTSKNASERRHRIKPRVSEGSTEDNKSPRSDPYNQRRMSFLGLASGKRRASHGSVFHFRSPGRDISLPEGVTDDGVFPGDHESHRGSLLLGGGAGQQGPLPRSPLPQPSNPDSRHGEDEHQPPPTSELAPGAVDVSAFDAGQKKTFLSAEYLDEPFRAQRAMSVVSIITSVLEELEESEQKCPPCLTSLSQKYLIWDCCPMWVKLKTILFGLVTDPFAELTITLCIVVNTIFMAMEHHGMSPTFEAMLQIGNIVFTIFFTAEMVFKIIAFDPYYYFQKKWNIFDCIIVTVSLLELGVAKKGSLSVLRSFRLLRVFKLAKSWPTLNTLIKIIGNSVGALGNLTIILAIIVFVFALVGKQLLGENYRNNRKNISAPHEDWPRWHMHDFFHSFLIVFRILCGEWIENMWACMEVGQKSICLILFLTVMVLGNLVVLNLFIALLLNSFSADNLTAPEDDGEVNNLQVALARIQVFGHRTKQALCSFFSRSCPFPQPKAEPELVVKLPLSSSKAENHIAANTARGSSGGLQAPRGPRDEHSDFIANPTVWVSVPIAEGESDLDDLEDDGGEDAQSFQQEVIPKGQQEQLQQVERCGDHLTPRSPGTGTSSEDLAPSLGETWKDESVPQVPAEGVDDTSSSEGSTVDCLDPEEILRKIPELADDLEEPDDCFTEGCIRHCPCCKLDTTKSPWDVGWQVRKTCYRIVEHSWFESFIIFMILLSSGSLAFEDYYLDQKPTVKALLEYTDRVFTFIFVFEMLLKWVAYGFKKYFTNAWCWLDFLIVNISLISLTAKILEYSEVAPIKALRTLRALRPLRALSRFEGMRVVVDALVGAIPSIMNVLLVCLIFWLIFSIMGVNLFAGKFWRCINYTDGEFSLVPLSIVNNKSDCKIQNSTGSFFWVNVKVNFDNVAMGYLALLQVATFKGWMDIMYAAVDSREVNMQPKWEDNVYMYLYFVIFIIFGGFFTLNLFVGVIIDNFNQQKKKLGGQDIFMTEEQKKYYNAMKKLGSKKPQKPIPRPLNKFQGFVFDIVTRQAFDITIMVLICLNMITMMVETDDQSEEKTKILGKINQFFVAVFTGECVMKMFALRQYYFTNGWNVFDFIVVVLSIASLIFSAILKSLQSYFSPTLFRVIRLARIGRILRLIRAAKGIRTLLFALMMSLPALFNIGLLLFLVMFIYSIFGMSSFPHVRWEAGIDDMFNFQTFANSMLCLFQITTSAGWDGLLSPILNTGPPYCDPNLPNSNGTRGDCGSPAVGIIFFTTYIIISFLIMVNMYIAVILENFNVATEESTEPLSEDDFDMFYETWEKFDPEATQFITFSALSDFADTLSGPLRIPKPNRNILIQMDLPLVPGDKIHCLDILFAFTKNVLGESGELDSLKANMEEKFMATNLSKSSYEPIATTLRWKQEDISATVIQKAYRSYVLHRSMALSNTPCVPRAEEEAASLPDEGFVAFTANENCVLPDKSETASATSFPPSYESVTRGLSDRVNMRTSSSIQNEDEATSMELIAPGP

SMILES | IC50 [1] | IC50 [2]
CCOc1ccccc1/C=N/NC(=O)c1cncc(-c2ccc(OC)cc2)n1 [US20240335442, Compound 43] | 3920 nM | 188 nM
CCCOc1ccccc1/C=N/NC(=O)c1cncc(-c2ccc(OC)cc2)n1 [US20240335442, Compound 44] | 3620 nM | 163 nM
CCCOc1cc(/C=N/NC(=O)c2cncc(-c3ccc(OC)cc3)n2)cc(OCCC)c1 [US20240335442, Compound 68] | 1830 nM | 289 nM
COc1ccc(-c2cncc(C(=O)N/N=C/c3cc(OC(C)C)cc(OC(C)C)c3)n2)cc1 [US20240335442, Compound 69] | 1430 nM | 517 nM
COc1ccc(-c2cncc(C(=O)N/N=C/c3cc(F)cc(F)c3)n2)cc1 [US20240335442, Compound 70] | 10000 nM | 973 nM
COc1ccc(-c2cncc(C(=O)N/N=C/c3cc(C)cc(C)c3)n2)cc1 [US20240335442, Compound 75] | 464 nM | 51.2 nM
CC(C)Oc1ccc(-c2cncc(C(=O)N/N=C/C3CCC(F)(F)CC3)n2)cc1 [US20240335442, Compound 176] | 400 nM | 456 nM

Other lines, results leading:

IC50 [1] | IC50 [2] | SMILES
1490 nM | 352 nM | COc1ccc(-c2cncc(C(=O)N/N=C/c3cc(OC)cc(OC)c3OC)n2)cc1 [US20240335442, Compound 80]
> 10000 nM | > 1000 nM | COc1ccc(-c2cncc(C(=O)N/N=C/c3cc(OC)c(OC)c(OC)c3)n2)cc1 [US20240335442, Compound 81]
> 10000 nM | > 1000 nM | COc1ccc(Oc2nccnc2C(=O)N/N=C/c2cc(OC)cc(OC)c2)cc1 [US20240335442, Compound 129]
778 nM | 162 nM | COc1ccc(-c2cncc(C(=O)N/N=C/C3=C(C)CCCC3)n2)cc1 [US20240335442, Compound 197]
367 nM | 24 nM | CCOc1ccc(-c2cncc(C(=O)N/N=C/C3=C(C)CCCC3)n2)cc1 [US20240335442, Compound 198]
425 nM | 70 nM | CCOc1ccc(-c2cncc(C(=O)N/N=C/C3=C(C)CCCCC3)n2)cc1 [US20240335442, Compound 201]
> 10000 nM | 472 nM | CCOc1ccc(-c2nc(C(=O)N/N=C/c3cc(OC)cc(OC)c3)cnc2C)cc1 [US20240335442, Compound 207]
1890 nM | 431 nM | CCOc1ccc(-c2nc(C(=O)N/N=C/c3cc(OC)cc(OC)c3)cnc2CC)cc1 [US20240335442, Compound 208]
> 10000 nM | > 1000 nM | CCOc1ccc(-c2nc(C(=O)N/N=C/c3cc(OC)cc(OC)c3)cnc2OC)cc1 [US20240335442, Compound 211]
1910 nM | 116 nM | CCOc1ccc(-c2cncc(C(=O)N/N=C/c3cc(OC)cc(C(C)O)c3)n2)cc1 (centres undefined) [US20240335442, Compound 215]
